Measured values reported in PubChem BioAssay AID202 (DTP/NCI, 2004).
Values joined by “and” are separate entries in the source; they are usually repeats but may differ in a detail not shown here. Equal values may be shown once.

Tested on: HT29 xenograft, nude mice, s.c., tumor weight T/C%
Assay: NCI In Vivo Anticancer Drug Screen. Data for tumor model HT29;CX-1 Human Adenocarcinoma (MER+) (subcutaneous) in NU/NU Swiss (nude) mice
Conditions: endpoint: optimum tumor weight change, higher = larger tumour
Experimental: The antitumor activity of compounds was measured in mice bearing transplantable tumors. Survival or tumor size were measured and the results are expressed as the measurement made in the treated group (T) divided by the measurement made in the vehicle treated control group (C). The tumor model used in this assay is HT29;CX-1 Human Adenocarcinoma (MER+) (subcutaneous) in NU/NU Swiss (nude) mice

[1] = dose: 100.0 mg/kg/injection, schedule: Q04DX003 (ip), vehicle: Klucel (hydroxypropylcellulose) (HPC)
[2] = dose: 25.0 mg/kg/injection, schedule: Q04DX003 (ip), vehicle: Klucel (hydroxypropylcellulose) (HPC)
[3] = dose: 50.0 mg/kg/injection, schedule: Q04DX003 (ip), vehicle: Klucel (hydroxypropylcellulose) (HPC)

For `CC(=O)c1c(O)c(C)c(O)c2c1OC1=CC(=O)C(C(C)=O)C(=O)C12C` (stereo not given), the T/C (dose: 50.0 mg/kg/injection, schedule: Q01DX003 (ip), vehicle: sodium bicarbonate) was 88 % of control, the T/C (dose: 100.0 mg/kg/injection, schedule: Q01DX003 (ip), vehicle: sodium bicarbonate) was 97 % of control and the T/C (dose: 200.0 mg/kg/injection, schedule: Q01DX003 (ip), vehicle: sodium bicarbonate) was 82 % of control.

With `CC1OC(OC2CC(O)(C(=O)CO)Cc3c(O)c4c(c(O)c32)C(=O)c2ccccc2C4=O)CC(N)C1O` (stereo not given) the T/C (dose: 0.25 mg/kg/injection, schedule: Q04DX003 (ip), vehicle: water) was 89 % of control.

`CS(=O)(=O)OCCN(CCOS(C)(=O)=O)c1ccc(C=Nc2ccc(-c3csc(COc4ccccc4)n3)cc2)cc1` was tested, and the T/C [1] was 71 % of control and the T/C (dose: 200.0 mg/kg/injection, schedule: Q04DX003 (ip), vehicle: Klucel (hydroxypropylcellulose) (HPC)) was 70 % of control.

In the case of `CCOC(=O)C1C2OC(=O)C(C(=O)C2CN(CCCl)CCCl)C1C1CC=C(CC2=CCC(C3C4C(=O)OC(C(CN(CCCl)CCCl)C4=O)C3C(=O)OCC)CC2)CC1` (stereo not given), the T/C [2] was 91 % of control, the T/C [3] was 66 % of control and the T/C [1] was 69 % of control.

In the case of `C=CC(=O)N1CN(C(=O)C=C)CN(C(=O)C=C)C1`, the T/C (dose: 3.13 mg/kg/injection, schedule: Q01DX003 (ip), vehicle: saline with Tween-80) was 62 % of control and the T/C (dose: 6.25 mg/kg/injection, schedule: Q01DX003 (ip), vehicle: saline with Tween-80) was 93 % of control.

For `CCOC(=O)Nc1cc2c(c(N)n1)N=C(CN(C)c1ccccc1)CN2`, the T/C (dose: 12.5 mg/kg/injection, schedule: Q04DX003 (ip), vehicle: Klucel (hydroxypropylcellulose) (HPC)) was 74 % of control, the T/C [2] was 116 % of control and the T/C [3] was 71 % of control. For the same compound, the T/C [1] was 90 % of control.

`CN(C)N=Nc1ccccc1` was tested, and the T/C [2] was 64 % of control and the T/C [3] was 83 % of control.

`O=CC(S)CO` (stereo not given) was tested, and the T/C (dose: 100.0 mg/kg/injection, schedule: Q04DX003 (ip), vehicle: suspension in saline) was 119 % of control, the T/C (dose: 200.0 mg/kg/injection, schedule: Q04DX003 (ip), vehicle: suspension in saline) was 96 % of control and the T/C (dose: 400.0 mg/kg/injection, schedule: Q04DX003 (ip), vehicle: suspension in saline) was 107 % of control.

With `CC(=O)OCC1OC(n2cc(CBr)nn2)C(OC(C)=O)C(OC(C)=O)C1OC(C)=O` (stereo not given) the T/C (dose: 50.0 mg/kg/injection, schedule: Q04DX003 (ip), vehicle: saline with Tween-80) was 78 % of control, the T/C (dose: 100.0 mg/kg/injection, schedule: Q04DX003 (ip), vehicle: saline with Tween-80) was 92 % of control and the T/C (dose: 200.0 mg/kg/injection, schedule: Q04DX003 (ip), vehicle: saline with Tween-80) was 69 % of control.

In the case of `CC(C)CCCCCCCCCCCCC(=O)NCC(=O)NC1C(C)OC(Nc2ncnc3nc[nH]c23)C(O)C1O` (stereo not given), the T/C (dose: 3.13 mg/kg/injection, schedule: Q04DX003 (ip), vehicle: distilled water + Tween-80) was 88 % of control, the T/C (dose: 3.13 mg/kg/injection, schedule: Q04DX003 (ip), vehicle: saline with Tween-80) was 58 % of control and the T/C (dose: 6.25 mg/kg/injection, schedule: Q04DX003 (ip), vehicle: distilled water + Tween-80) was 56 % of control and 66 % of control. For the same compound, the T/C (dose: 6.25 mg/kg/injection, schedule: Q04DX003 (ip), vehicle: saline with Tween-80) was 52 % of control, the T/C (dose: 12.5 mg/kg/injection, schedule: Q04DX003 (ip), vehicle: distilled water + Tween-80) was 55 % of control and the T/C (dose: 12.5 mg/kg/injection, schedule: Q04DX003 (ip), vehicle: saline with Tween-80) was 40 % of control. The T/C (dose: 25.0 mg/kg/injection, schedule: Q04DX003 (ip), vehicle: distilled water + Tween-80) was 73 % of control.
